Assay results from paper PMC7466261, “In Silico and In Vitro Analysis of Multifunctionality of Animal Food-Derived Peptides” (Foods, 2020).
Like-named read-outs stand apart in the source and are kept apart here. Where a SMILES comes first, the peptide text is derived from it. Where no end group is shown, it is not given here.

What was measured:
[1] = molecular target: T1, angiotensin-converting enzyme (ACE) (Oryctolagus cuniculus, UniProt P12822); test: ACE-inhibitory activity, fluorescence assay with Abz-Gly-Phe(NO2)-Pro; format: biochemical
T1 sequence (P12822 34-1310): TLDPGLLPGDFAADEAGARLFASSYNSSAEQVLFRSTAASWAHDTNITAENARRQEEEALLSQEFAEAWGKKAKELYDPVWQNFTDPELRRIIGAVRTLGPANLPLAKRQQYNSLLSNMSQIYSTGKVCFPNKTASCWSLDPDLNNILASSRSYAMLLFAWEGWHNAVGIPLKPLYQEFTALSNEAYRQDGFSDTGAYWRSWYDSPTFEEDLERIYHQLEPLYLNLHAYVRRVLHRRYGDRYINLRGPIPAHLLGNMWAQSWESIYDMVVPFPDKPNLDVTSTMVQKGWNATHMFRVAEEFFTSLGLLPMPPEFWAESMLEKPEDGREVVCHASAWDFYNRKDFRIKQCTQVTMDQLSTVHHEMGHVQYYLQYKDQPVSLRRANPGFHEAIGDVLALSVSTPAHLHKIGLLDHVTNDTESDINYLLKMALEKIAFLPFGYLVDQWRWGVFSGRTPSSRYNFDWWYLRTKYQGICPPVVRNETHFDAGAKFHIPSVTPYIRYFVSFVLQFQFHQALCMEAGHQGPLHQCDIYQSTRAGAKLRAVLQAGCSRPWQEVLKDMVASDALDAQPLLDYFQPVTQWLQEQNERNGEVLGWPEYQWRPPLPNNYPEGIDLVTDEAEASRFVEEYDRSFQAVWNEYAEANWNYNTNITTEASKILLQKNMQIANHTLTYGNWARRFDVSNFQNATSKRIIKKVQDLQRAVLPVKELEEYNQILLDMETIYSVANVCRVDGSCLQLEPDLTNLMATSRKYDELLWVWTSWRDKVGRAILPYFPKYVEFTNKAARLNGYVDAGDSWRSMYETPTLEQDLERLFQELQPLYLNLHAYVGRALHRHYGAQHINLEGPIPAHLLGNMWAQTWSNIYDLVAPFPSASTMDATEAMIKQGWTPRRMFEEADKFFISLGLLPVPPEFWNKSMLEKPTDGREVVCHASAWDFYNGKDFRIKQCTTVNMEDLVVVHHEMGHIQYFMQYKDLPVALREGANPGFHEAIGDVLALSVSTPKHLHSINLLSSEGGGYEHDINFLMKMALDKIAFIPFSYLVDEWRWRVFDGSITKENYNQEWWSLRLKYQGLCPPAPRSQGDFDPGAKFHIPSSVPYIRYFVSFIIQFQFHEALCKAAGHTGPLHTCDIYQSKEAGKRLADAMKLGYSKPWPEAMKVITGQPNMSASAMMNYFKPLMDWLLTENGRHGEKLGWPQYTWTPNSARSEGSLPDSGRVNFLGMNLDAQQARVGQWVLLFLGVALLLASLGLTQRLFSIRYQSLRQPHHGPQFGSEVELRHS
Method: ACE (1 U/mL) was diluted (0.04 U/mL) in 150 mM Tris buffer containing 0.1 μM ZnCl2 (pH 8.3). Forty microliters of sample (or MilliQ water for blank and control) were added to a black multi-well plate (Porvair, Leatherhead, UK). Then, 40 μL of ACE were added, and the reaction started after the addition of 160 μL of the substrate. The plate was incubated at 37 °C for 30 min, and the fluorescence was measured in a FLUOstar OPTIMA plate reader (BMG Labtechnologies GmbH, Offenburg, Germany) with 320 nm excitation and 420 nm emission filters.

[2] = Oxygen radical absorbance capacity (ORAC)-FL assay; parameters: key to Antioxidant Activity ORAC, symbol: **: Antioxidant activity not detected at the highest peptide concentration analyzed (0.20 µmol); details: for Antioxidant Activity ORAC: mean ± SD
Method: An oxygen radical absorbance capacity (ORAC)-FL assay was used based on the protocol previously optimized. The reaction was performed at 37 °C in 75 mM phosphate buffer (pH 7.4). The final assay mixture volume was 200 µL, containing 70 nM FL, 12 mM AAPH, and antioxidant [(Trolox, 1–8 µM) or sample (at different concentrations)]. Fluorescence was measured during 137 min in a FLUOstar OPTIMA plate reader (BMG Labtech) with 485 nm excitation and 520 nm emission filters. The equipment was controlled by the FLUOstar Control ver. 1.32 R2 software for fluorescence measurement. Samples were analyzed in triplicate. The final ORAC-FL value was expressed as μmol Trolox equivalents (TE) per μmol peptide.

ABTS assay (TEAC) = details: mean ± SD
Method: Antioxidant activity was measured using a previously optimized method with some modifications. A mixture of 7 mM ABTS stock solution and 2.45 mM potassium persulfate was kept in the dark at room temperature for 12-16 h to form the ABTS radical cation (ABTS^•+). The ABTS^•+ solution was diluted in 5 mM of phosphate buffer solution (PBS) (pH 7.4) to an absorbance of 0.70 ± 0.02 at 734 nm at 30 °C. Two mL of diluted ABTS^•+ solution were mixed with 20 μL of sample or Trolox (0–0.015 μmol), and the absorbance was recorded at 734 nm after 10 min incubation at 30 °C. The Trolox equivalent antioxidant capacity (TEAC) value was expressed as μmol TE per μmol peptide. Each sample was analyzed in triplicate.

[3] = molecular target: T1, angiotensin-converting enzyme (ACE); details: read-out: ACE inhibitory IC50, cited from earlier work
[4] = MBPDB; cited from earlier work
[5] = molecular target: opioid, (3H)-naloxone binding; details: database value; read-out: Opioid agonist IC50, inhibition of (3H)-naloxone binding; cited from earlier work
Caco-2 cells [6] = test: Cell viability (MTT), direct effects, Caco-2; format: cell-based, human; details: Caco-2, 1–100 µM, 24 h
Method: (§1) Cell viability was determined using the MTT assay. […] Samples were analyzed in triplicate.

RAW264.7 cells = test: Cell viability (MTT), direct effects, RAW264.7; format: cell-based, mouse; details: RAW264.7, 1–100 µM, 24 h
Method: as §1

Caco-2 cells [7] = test: Intracellular ROS (DCFH), t-BOOH-stressed Caco-2; format: cell-based, human; details: stressed Caco-2 (1 mM t-BOOH)
Method: The intracellular ROS levels were detected using the ROS-sensitive fluorescent dye, DCFH, as previously described. Caco-2 cells were plated in 48-well plates (density of 4.75 × 10^4 cells/well) and RAW264.7 cells in 24-well plates (density of 2.0 × 10^5 cells/well) and incubated for 7 days and 14 h, respectively. After this time, cells were treated with peptides as previously described for 24 h. Then, DCFH was dissolved in HBSS and added to cells at a final concentration of 5 µM solution. Cells were incubated for 30 min at 37 °C. The probe was removed, and cells were incubated with PBS (direct effects) or t-BOOH (protective effects) for 60 min, measuring the fluorescence after 60 min in a FLUOstar OPTIMA plate reader (BMG Labtech) with 485 nm excitation and 520 nm emission filters. The results were expressed as percentage of the control, which was considered as 100%. The assay was run in triplicate.

[8] = mean ± SD, read-out: ACE Inhibitory Activity (IC50-µM)
[9] = highest peptide concentration analyzed 1000 µM, read-out: ACE Inhibitory Activity (IC50-µM), symbol

Molecule: CC(C)C[C@H](N)C(=O)NCC(=O)N[C@@H](Cc1ccc(O)cc1)C(=O)O [LGY] (H-Leu-Gly-Tyr-OH; N-terminus and C-terminus assumed)
- IC50 [1, 8]: 26.1 ± 0.83 µM
- Antioxidant Activity ORAC [2]: 2.00 ± 0.09 µmol TE/µmol peptide
- Antioxidant Activity TEAC (ABTS assay (TEAC)): 1.54 ± 0.01 µmol TE/µmol peptide
- IC50 ([3]; database value): 21.5 µM
- ORAC [4]: ORAC = 2.31 µmol TE/µmol peptide **

Molecule: CC(C)C[C@H](NC(=O)[C@@H](N)CC(C)C)C(=O)N[C@@H](Cc1ccccc1)C(=O)O [LLF] (H-Leu-Leu-Phe-OH; N-terminus and C-terminus assumed)
- IC50 [1, 8]: 94.8 ± 2.97 µM
- Antioxidant Activity ORAC, symbol ([2]; highest peptide concentration analyzed 0.20 µmol): **
- IC50 ([3]; BIOPEP-UWM): 79.8 µM

Molecule: CC(C)C[C@H](NC(=O)[C@H](Cc1ccc(O)cc1)NC(=O)[C@@H](N)CCCNC(=N)N)C(=O)NCC(=O)O [RYLG] (H-RYLG-OH; N-terminus and C-terminus assumed)
- IC50 [1, 9]: > 1000 µM
- Antioxidant Activity ORAC [2]: 1.70 ± 0.11 µmol TE/µmol peptide
- Antioxidant Activity TEAC (ABTS assay (TEAC)): 2.91 ± 0.21 µmol TE/µmol peptide
- IC50 ([3]; database value): 225 µM
- ORAC [4]: ORAC = 1.67 µmol TE/µmol peptide **

Molecule: CC(C)C[C@H](NC(=O)[C@H](Cc1ccc(O)cc1)NC(=O)[C@@H](N)CCCNC(=N)N)C(=O)O [RYL] (H-Arg-Tyr-Leu-OH; N-terminus and C-terminus assumed)
- IC50 [1, 9]: > 1000 µM
- Antioxidant Activity ORAC [2]: 1.72 ± 0.14 µmol TE/µmol peptide
- Antioxidant Activity TEAC (ABTS assay (TEAC)): 1.90 ± 0.03 µmol TE/µmol peptide
- IC50 ([3]; BIOPEP-UWM): 3.31 µM
- IC50 ([3]; database value): 107 µM
- ORAC [4]: ORAC = 1.75 µmol TE/µmol peptide **

Molecule: CC(C)C[C@H](NC(=O)[C@H](Cc1ccccc1)NC(=O)CNC(=O)[C@@H](N)Cc1ccc(O)cc1)C(=O)O [YGFL]
- IC50 [1, 8]: 292.5 ± 0.83 µM
- Antioxidant Activity ORAC [2]: 1.42 ± 0.04 µmol TE/µmol peptide
- Antioxidant Activity TEAC (ABTS assay (TEAC)): 2.12 ± 0.03 µmol TE/µmol peptide

Molecule: CC(C)C[C@H](NC(=O)CNC(=O)[C@@H](N)Cc1ccc(O)cc1)C(=O)N[C@@H](Cc1ccccc1)C(=O)O [YGLF] (H-YGLF-OH; N-terminus and C-terminus assumed)
- IC50 [1, 9]: > 1000 µM
- Antioxidant Activity ORAC [2]: 0.89 ± 0.01 µmol TE/µmol peptide
- Antioxidant Activity TEAC (ABTS assay (TEAC)): 2.08 ± 0.06 µmol TE/µmol peptide
- IC50 ([3]; BIOPEP-UWM): 733 µM
- IC50 [5]: 300 µM

Molecule: CC(C)C[C@H](NC(=O)[C@@H](N)Cc1ccc(O)cc1)C(=O)NCC(=O)N[C@@H](Cc1ccc(O)cc1)C(=O)O [YLGY] (H-YLGY-OH; N-terminus and C-terminus assumed)
- IC50 [1, 8]: 9.87 ± 0.31 µM
- Antioxidant Activity ORAC [2]: 2.96 ± 0.20 µmol TE/µmol peptide
- Antioxidant Activity TEAC (ABTS assay (TEAC)): 2.14 ± 0.11 µmol TE/µmol peptide
- IC50 ([3]; database value): 41.9 µM
- ORAC [4]: ORAC = 1.46 µmol TE/µmol peptide **

Molecule: CC(C)C[C@H](NC(=O)[C@@H](N)Cc1ccc(O)cc1)C(=O)NCC(=O)O [YLG] (H-Tyr-Leu-Gly-OH; N-terminus and C-terminus assumed)
- IC50 [1, 9]: > 1000 µM
- Antioxidant Activity ORAC [2]: 0.93 ± 0.08 µmol TE/µmol peptide
- Antioxidant Activity TEAC (ABTS assay (TEAC)): 1.40 ± 0.04 µmol TE/µmol peptide
- ORAC [4]: ORAC = 1.38 µmol TE/µmol peptide **

Molecule: N[C@@H](Cc1ccc(O)cc1)C(=O)N1CCC[C@H]1C(=O)N[C@@H](Cc1c[nH]c2ccccc12)C(=O)O [YPW] (H-Tyr-Pro-Trp-OH; N-terminus and C-terminus assumed)
- IC50 [1, 9]: > 1000 µM

Molecule: AYFYPE [AYFYPE]
- IC50 [1, 8]: 774 ± 38.2 µM
- IC50 ([3]; BIOPEP-UWM and MBPDB): 106 µM
- IC50 ([3]; database value): 261 µM

Molecule: FYPEL [FYPEL]
- IC50 [1, 8]: 62 ± 6.27 µM
- IC50 ([3]; database value): 80.6 µM

Molecule: HLPLP [reference compound]
- IC50 ([3]; literature value): 41 µM

Molecule: IPP [reference compound]
- IC50 ([3]; literature value): 5 µM

Molecule: RYLGY [RYLGY]
- IC50 [1, 8]: 3.08 ± 0.11 µM

Molecule: RYLGYLE [RYLGYLE]
- IC50 [1, 9]: > 1000 µM
- Cell viability, direct effect (Caco-2 cells [6]): did not evoke changes in cell viability
- Cell viability, direct effect (RAW264.7 cells): did not evoke changes in cell viability

Molecule: VPP [reference compound]
- IC50 ([3]; literature value): 9 µM

Molecule: YFYPEL [YFYPEL]
- IC50 [1, 8]: 8.82 ± 0.58 µM
- Cell viability, direct effect (Caco-2 cells [6]): did not evoke changes in cell viability
- Cell viability, direct effect (RAW264.7 cells): did not evoke changes in cell viability
- ROS levels (% control) (Caco-2 cells [7]; 1 µM peptide): 168.88 ± 17.80%

Molecule: YGFLP [YGFLP]
- IC50 [1, 8]: 272.39 ± 0.25 µM
- IC50 ([3]; literature value): 260 µM

Molecule: YLGYLE [YLGYLE]
- IC50 [1, 8]: 85.8 ± 4.66 µM
- Cell viability, direct effect (Caco-2 cells [6]): did not evoke changes in cell viability
- Cell viability, direct effect (RAW264.7 cells): did not evoke changes in cell viability
- ROS levels (% control) (Caco-2 cells [7]; 1 µM peptide): 175.06 ± 11.13%
- ROS levels (% control) (Caco-2 cells [7]; 10 µM peptide): 174.44 ± 11.60%

Molecule: YPFPGPI [YPFPGPI]
- IC50 [1, 8]: 686 ± 103 µM
- IC50 ([3]; MBPDB): 500 µM

Molecule: YPFPGPIP
- IC50 [1, 8]: 224 ± 43.9 µM

Molecule: YPFVE [YPFVE]
- IC50 [1, 9]: > 1000 µM

Molecule: YPFVEP [YPFVEP]
- IC50 [1, 8]: 7.48 ± 0.03 µM

Molecule: YPVEPF [YPVEPF]
- IC50 [1, 9]: > 1000 µM
